These results are taken from PMC6514012, “Targeting the neuronal calcium sensor DREAM with small-molecules for Huntington’s disease treatment” (Scientific Reports, 2019).

Data set [1] has as its target T1, GST-DREAM (Homo sapiens, UniProt Q9Y2W7, Y130A).
T1 construct: gene KCNIP3
T1 sequence (Q9Y2W7 1-256 Y130A): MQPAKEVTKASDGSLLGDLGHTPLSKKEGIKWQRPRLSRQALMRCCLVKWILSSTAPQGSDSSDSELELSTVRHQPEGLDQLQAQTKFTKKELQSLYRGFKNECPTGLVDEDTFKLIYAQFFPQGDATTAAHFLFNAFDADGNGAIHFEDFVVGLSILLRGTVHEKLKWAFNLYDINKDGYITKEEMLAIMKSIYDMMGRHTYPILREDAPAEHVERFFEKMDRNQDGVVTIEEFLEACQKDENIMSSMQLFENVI
Kind of data set: SPR, immobilized protein. In kind it is binding. The conditions noted are these: CM5 chip; compared with wild type. Background: SPR reads the build-up and loss of mass on a sensor chip optically.

The target in data set [2] is T2, His-DREAM (71–256); rDREAM (Homo sapiens, UniProt Q9Y2W7).
T2 construct: gene KCNIP3; residues 71-256, His-tagged, recombinant, immobilized on CM4 sensor chip; dimer and monomer in Ca2+
T2 sequence (Q9Y2W7 71-256): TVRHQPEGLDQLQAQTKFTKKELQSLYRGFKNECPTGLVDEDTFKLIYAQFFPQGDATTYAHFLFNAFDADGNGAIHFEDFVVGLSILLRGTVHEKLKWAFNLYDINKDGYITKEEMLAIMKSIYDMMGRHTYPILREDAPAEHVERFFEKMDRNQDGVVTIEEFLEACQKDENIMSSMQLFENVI
In words: SPR, immobilized protein. To be noted: CM4 chip; binding depends on Ca2+ and Mg2+.

The target in data set [3] is T3, GST-DREAM (Homo sapiens, UniProt Q9Y2W7, Y118A).
T3 construct: gene KCNIP3
T3 sequence (Q9Y2W7 1-256 Y118A): T1 sequence (Q9Y2W7 1-256 Y130A) with Y118A, A130Y
In words: SPR, immobilized protein. Format: binding. The conditions noted are these: CM5 chip; compared with wild type.

Data set [4] concerns the molecule itself. Kind of data set: native gel or EMSA; 10% blue native (nondenaturing, nonreducing) polyacrylamide gel; His-DREAM 71-256 (50 ng, 100 nM) with 5 mM CaCl2, incubated 10 min at RT with 10, 30, 100 and 300 nM IQM-PC330; immunodetection with anti-DREAM antibody; dimer and monomer bands. (In general: In EMSA bound probe runs differently from free probe, usually more slowly.)

Changes are numbered by the printed parent chain.

A word on the stoichiometry N: it is the number of molecules, sites or subunits per partner or assembly.

For the molecule `CCCCc1ccc(-c2ccc(C(=O)O)c(NC(=O)Cc3ccc(Cl)c(Cl)c3)c2)cc1` [compound 19, 2-[2-(3,4-Dichlorophenyl)acetylamino]-4-(4′-n-butylphenyl)benzoic acid], the “SPR, immobilized protein” value in data set [1] and in data set [3] was “Tyr118Ala or Tyr130Ala showed a substantial decrease in the binding of the two ligands” throughout. The KD in data set [2] was 2.8 ± 0.3 · 10^−5 M.
Take `CCCCc1ccc(-c2ccc(NC(=O)Cc3ccc(Cl)c(Cl)c3)c(C(=O)O)c2)cc1` [compound 36, 2-[2-(3,4-Dichlorophenyl)acetylamino]-5-(4’-n-butylphenyl)benzoic acid]: the “SPR, immobilized protein” value in data set [1] and in data set [3] was “Tyr118Ala or Tyr130Ala showed a substantial decrease in the binding of the two ligands” in each case. Further, the KD in data set [2] is 3.9 ± 0.4 · 10^−5 M.

B1: Recombinant His-tagged soluble DREAM protein (aa 71–256) (domain or fragment, UniProt Q9Y2W7 71-256, looked up)
chain: T2 sequence (Q9Y2W7 71-256)
notes: DREAM (downstream regulatory element antagonist modulator; KChIP3, calsenilin), residues 71-256; Seen as dimer and monomer on blue native gels with 5 mM CaCl2; also called rDREAM; recombinant DREAM (amino acids 71–256); source: recombinant protein
On to B1, for which the “stoichiometry N” value in data set [4] is 2.
